Test results reported in article PMC3006138, “Fexinidazole – A New Oral Nitroimidazole Drug Candidate Entering Clinical Development for the Treatment of Sleeping Sickness” (PLoS Neglected Tropical Diseases, 2010).

Key:
[1] = test system: hepatocytes from African American donors; experiment: Hepatocyte intrinsic clearance and metabolite profile; assay type: in vitro ADME, human; conditions: fexinidazole 10 µM
Experimental: (§1) Fexinidazole was incubated with cryopreserved hepatocytes from male CD-1 mice, male Sprague Dawley rats, male beagle dogs, male cynomolgus monkeys, and from pooled white or African-American human donor samples (purchased commercially), at concentrations of 1 µM and 10 µM. […] The incubated samples were analyzed by LC-MS after extraction into acetonitrile.
Fexinidazole sulfoxide, lot 1106-I-0170, 99.3% purity, and fexinidazole sulfone, lot 1106-I-0171, 99.9% purity, were provided by the Sponsor.
Cryopreserved hepatocytes of five single donors, lots EHI, REL, KSE […]
ZIJ and MRS, were purchased from In Vitro Technologies Inc (Baltimore, Maryland, USA).
The certificates of analysis are reported in Appendix 1.
(§2) Reagents and solvents were of analytical grade and obtained from Sigma-Aldrich (St. Louis, […]
7.5. In Vitro Incubations
(§3) On the day of the experiment a 10 mM stock solution of fexinidazole in DMSO was prepared and, within 3 hours, aliquots of this freshly prepared solution, after suitable dilution, were added to the incubation matrix, to reach fexinidazole final concentrations of 1 and 10 µM. The final percentage of DMSO was 0.01% in the incubation samples for the […]
The cryopreserved hepatocytes were thawed according to the supplier’s procedure and the number of viable cells was determined using the Trypan Blue exclusion method. Viabilities were 92% for lot EHI, 89% for lot REL, 82% for lot KSE, 86% for lot ZIJ and 86% for lot MRS in the intrinsic clearance study. In the metabolite profile study viabilities were 91% for lot EHI, 90% for lot REL, 85% for lot KSE, 84% for lot ZIJ and 87% for lot MRS.
Afterwards, the same amount of viable cells for each donor were pooled and used for the incubations of fexinidazole.
7.5.1. Intrinsic Clearance Study […]
(§4) µM with pooled human hepatocytes (1 million cells/mL) in a final incubation volume of 1 mL Leibovitz L-15 medium, at 37°C. Incubations were performed in duplicate in a 48-well plate under shaking. Sampling was performed using an automatic liquid handling system (Multiprobe II EX, Packard). At 0, 1, 5, 10, 15, 20, 30, 60 and 120 minutes, 50 µL aliquots of the incubates were taken, then 80 µL of ice-cold acetonitrile and 20 µL of 1 µM warfarin in acetonitrile (internal standard) were added, and samples centrifuged at 2000 rpm for 20 min. The supernatant was analyzed by LC-MS/MS. […]
The chemical stability of fexinidazole was checked by incubating the compound at 37°C in the medium alone at t = 0 and 120 minutes.
(§5) For the determination of phase I and phase II activities of hepatocytes, 7-ethoxycoumarin (7-ETC) 1 µM, and 7-hydroxycoumarin (7-HC) 30 µM were used as positive controls and incubated under the same conditions as fexinidazole. Aliquots of incubates were taken at 0, 1, 5, 10, 15, 20, 30, 60 and 120 minutes and processed as fexinidazole samples.
7.5.2. Metabolite Profile Study
For metabolite profiling, fexinidazole was incubated at a concentration of 10 µM with pooled human hepatocytes (1 million cells/mL) in a final incubation volume of 2 mL Leibovitz L-15 medium, at 37°C. Aliquots of the incubation samples were taken at t = 0, 30 and 120 minutes; the metabolism was stopped by the addition of an equal volume of cold acetonitrile and the samples centrifuged at 1100 rpm for 20 min. The supernatant was stored at -20°C until analysis. Control incubations were performed with the compound in the medium alone for 120 minutes.
7.6. Analysis of the Samples of Intrinsic Clearance Study
(§6) The analysis of the samples for intrinsic clearance determination was performed by an LC-MS/MS method, using the following conditions:
(§7) HPLC Equipment and Conditions
HPLC system 1100 binary pump (Agilent, Palo Alto, USA)
Autosampler 2777 (Waters)
(§8) Analytical column Guard Column SB-C8 4.6 x 12.5 mm, 5 µm (Zorbax)
(§9) Column temperature ambient
(§10) Mobile phase A 10 mM ammonium formate pH 4.0: acetonitrile (95:5, v:v)
(§11) Mobile phase B 10 mM ammonium formate pH 4.0: acetonitrile (5:95, v:v) […]
(§12) Gradient conditions Step Total time (min) flow (µL/min) %A % B […]

dog hepatocytes = experiment: as above; assay type: in vitro ADME; conditions: fexinidazole 10 µM
Experimental: as §1
A quality control analysis of fexinidazole was performed via 1H-NMR in DMSO and LC- […]
provided by the Swiss Tropical Institute (Basel, Switzerland).
as §2
Cryopreserved hepatocytes from the male CD1 mouse, lot CSI; male Sprague Dawley rat, lot LPL; male beagle dog, lot BWX; male cynomolgus monkey, lot EHH; and pooled human samples, lot MJI, were purchased from In Vitro Technologies Inc (Baltimore, Maryland, […]
5.4. In vitro Incubations
as §3
On the day of experiment, the cryopreserved hepatocytes were thawed following the detailed instructions provided by the supplier.
The number of viable cells was determined using a Trypan Blue exclusion method.
5.4.1. Intrinsic Clearance Study […]
µM with mouse, rat, dog, monkey and human hepatocytes (300000 cells/mL for the mouse and 1 million cells/mL for the other species) in a final incubation volume of 0.75 mL […]
as §4, with “Incubations” for “µM with pooled human hepatocytes (1 million cells/mL) in a final incubation volume of 1 mL Leibovitz L-15 medium, at 37°C. Incubations”
the medium alone at t = 0 and 120 minutes.
as §5, with “activity” for “activities”, “(7-EC)” for “(7-ETC)”, “0,” for “0, 1, 5,”, “10,” for “10, 15,”
5.4.2. Metabolite Profile Study
For metabolite profiling, fexinidazole was incubated at a concentration of 10 µM with mouse, rat, dog, monkey and human hepatocytes (300000 cells/mL for the mouse and 1 million cells/mL for the other species) in a final incubation volume of 2 mL Leibovitz L-15 […]
Aliquots of the incubation samples were taken at t = 0, 30 and 120 minutes; the metabolism was stopped by the addition of an equal volume of cold acetonitrile and the samples centrifuged at 1500 rpm for 20 min. The supernatant was stored at -20°C until analysis. Control incubations were performed with the compound in the medium alone […]
5.5. Analysis of Samples for Intrinsic Clearance Determination
as §6, §7
HPLC system Agilent 1100 binary pump (Agilent, Palo Alto, USA)
Autosampler CTC Pal (Alfatech, San Jose, USA)
as §8, §9, §10, §11, §12
MS Equipment and Conditions
Mass spectrometer API 4000 Triple Quadrupole (MDS-Sciex, Toronto, […]
Source Turbo Ion Spray (TIS)
Ion mode Positive for fexinidazole and 7-EC.
Negative for 7-HC, 7-HC sulphate and 7-HC glucuronide.

CSc1ccc(OCc2ncc([N+](=O)[O-])n2C)cc1 [Fexinidazole, 1-methyl-2-((p-(methylthio)phenoxy)methyl)-5-nitroimidazole]
% of total drug related material ([1]; 30 min): 1%
% of total drug related material ([1]; t=0): 77%
% of total drug related material (dog hepatocytes; t=0): 50%

Cn1c([N+](=O)[O-])cnc1COc1ccc([S+](C)[O-])cc1 (stereo not drawn) [Fexinidazole sulfoxide]
% of total drug related material ([1]; 30 min): 98%
% of total drug related material ([1]; 120 min): 98%
% of total drug related material ([1]; t=0): 23%
% of total drug related material (dog hepatocytes; 30 min): 94%
% of total drug related material (dog hepatocytes; 120 min): 84%
% of total drug related material (dog hepatocytes; t=0): 50%

Cn1c([N+](=O)[O-])cnc1COc1ccc(S(C)(=O)=O)cc1 [Fexinidazole sulfone]
% of total drug related material ([1]; 120 min): 1%
% of total drug related material (dog hepatocytes; 30 min): 4%
% of total drug related material (dog hepatocytes; 120 min): 15%
